#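 Step 1: Grow cells in 96-well plates. Step 2: Expose to compound for 48 hours at 5 concentrations. Step 3: Interpolate endpoints linearly; if unreached, use highest concentration. GI50: concentration for 50% inhibition of growth.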 The source made the active and inactive calls. Rule as the data show it: active = GI50 up to about 1.1 µM and inactive = higher.
# Experiments:
# Assay in all cases: growth of human tumour cells (NCI), 48 h
# A498 = test system: A498
# SK-MEL-28 = test system: SK-MEL-28
# OVCAR-5 = test system: OVCAR-5
# SW-620 = test system: SW-620
# OVCAR-4 = test system: OVCAR-4
# MDA-N = test system: MDA-N
# CAKI-1 = test system: CAKI-1
# 786-0 = test system: 786-0
# SF-268 = test system: SF-268
# COLO 205 = test system: COLO 205
# EKVX = test system: EKVX
# TK-10 = test system: TK-10
# DU-145 = test system: DU-145
# SK-OV-3 = test system: SK-OV-3
# NCI-H522 = test system: NCI-H522
# UO-31 = test system: UO-31
# CCRF-CEM = test system: CCRF-CEM
# MDA-MB-435 = test system: MDA-MB-435
# OVCAR-3 = test system: OVCAR-3
# HL-60 = test system: HL-60
# SR = test system: SR
# SF-539 = test system: SF-539
# LOX IMVI = test system: LOX IMVI
# SNB-75 = test system: SNB-75
# ACHN = test system: ACHN
# A549 = test system: A549
# HCC 2998 = test system: HCC 2998
# MCF7 = test system: MCF7
# KM12 = test system: KM12
# UACC-257 = test system: UACC-257
# BT-549 = test system: BT-549
# SK-MEL-5 = test system: SK-MEL-5
# HOP-92 = test system: HOP-92
# SF-295 = test system: SF-295
# UACC-62 = test system: UACC-62
# SK-MEL-2 = test system: SK-MEL-2
# HOP-62 = test system: HOP-62
# MDA-MB-231 = test system: MDA-MB-231
# OVCAR-8 = test system: OVCAR-8
# RPMI-8226 = test system: RPMI-8226
# HCT-116 = test system: HCT-116
# NCI-H226 = test system: NCI-H226
# IGROV-1 = test system: IGROV-1
# U-251 = test system: U-251
# SNB-19 = test system: SNB-19
# K562 = test system: K562
# PC-3 = test system: PC-3
# NCI/ADR-RES = test system: NCI/ADR-RES
# Hs-578T = test system: Hs-578T
# Malme-3M = test system: Malme-3M
# SN12C = test system: SN12C
# HCT-15 = test system: HCT-15
# MOLT-4 = test system: MOLT-4
# M14 = test system: M14
# NCI-H23 = test system: NCI-H23
# RXF 393 = test system: RXF 393
# HT-29 = test system: HT-29
# NCI-H460 = test system: NCI-H460
smiles,measurement,setting,value
CN(C)c1ccc(/C=c2\c3ccccc3n3c2cc(-c2ccccc2)[n+]3C)cc1,GI50,A498,1420 nM (inactive)
same,GI50,SK-MEL-28,365 nM (active)
same,GI50,OVCAR-5,670 nM (active)
same,GI50,SW-620,119 nM (active)
same,GI50,OVCAR-4,809 nM (active)
same,GI50,MDA-N,144 nM (active)
same,GI50,CAKI-1,716 nM (active)
same,GI50,786-0,142 nM (active)
same,GI50,SF-268,261 nM (active)
same,GI50,COLO 205,14.3 nM (active)
same,GI50,EKVX,320 nM (active)
same,GI50,TK-10,624 nM (active)
same,GI50,DU-145,222 nM (active)
same,GI50,SK-OV-3,303 nM (active)
same,GI50,NCI-H522,19.3 nM (active)
same,GI50,UO-31,383 nM (active)
same,GI50,CCRF-CEM,63.5 nM (active)
same,GI50,MDA-MB-435,91.6 nM (active)
same,GI50,OVCAR-3,75.2 nM (active)
same,GI50,HL-60,28.3 nM (active)
same,GI50,SR,160 nM (active)
same,GI50,SF-539,40.6 nM (active)
same,GI50,LOX IMVI,118 nM (active)
same,GI50,SNB-75,61 nM (active)
same,GI50,ACHN,368 nM (active)
same,GI50,A549,201 nM (active)
same,GI50,HCC 2998,1350 nM (inactive)
same,GI50,MCF7,124 nM (active)
same,GI50,KM12,185 nM (active)
same,GI50,UACC-257,243 nM (active)
same,GI50,BT-549,30.4 nM (active)
same,GI50,SK-MEL-5,72.8 nM (active)
same,GI50,HOP-92,284 nM (active)
same,GI50,SF-295,213 nM (active)
same,GI50,UACC-62,365 nM (active)
same,GI50,SK-MEL-2,175 nM (active)
same,GI50,HOP-62,303 nM (active)
same,GI50,MDA-MB-231,222 nM (active)
same,GI50,OVCAR-8,72.6 nM (active)
same,GI50,RPMI-8226,17.2 nM (active)
same,GI50,HCT-116,85.3 nM (active)
same,GI50,NCI-H226,< 10 nM (active)
same,GI50,IGROV-1,68.9 nM (active)
same,GI50,U-251,32.2 nM (active)
same,GI50,SNB-19,77.1 nM (active)
same,GI50,K562,70 nM (active)
same,GI50,PC-3,72.6 nM (active)
same,GI50,NCI/ADR-RES,4450 nM (inactive)
same,GI50,Hs-578T,33.5 nM (active)
same,GI50,Malme-3M,153 nM (active)
same,GI50,SN12C,149 nM (active)
same,GI50,HCT-15,1200 nM
same,GI50,MOLT-4,91.4 nM (active)
same,GI50,M14,157 nM (active)
same,GI50,NCI-H23,58.2 nM (active)
same,GI50,RXF 393,547 nM (active)
same,GI50,HT-29,89.1 nM (active)
same,GI50,NCI-H460,103 nM (active)
NC(Cc1ccc(O)cn1)C(=O)NC(C(=O)O)c1ccccc1 (configuration not stated),GI50,A498,> 100000 nM (inactive)
same,GI50,SK-MEL-28,> 100000 nM (inactive)
same,GI50,OVCAR-5,> 100000 nM (inactive)
same,GI50,SW-620,> 100000 nM (inactive)
same,GI50,OVCAR-4,> 100000 nM (inactive)
same,GI50,MDA-N,> 100000 nM (inactive)
same,GI50,CAKI-1,> 100000 nM (inactive)
same,GI50,786-0,> 100000 nM (inactive)
same,GI50,SF-268,> 100000 nM (inactive)
same,GI50,COLO 205,> 100000 nM (inactive)
same,GI50,EKVX,> 100000 nM (inactive)
same,GI50,TK-10,> 100000 nM (inactive)
same,GI50,DU-145,> 100000 nM (inactive)
same,GI50,NCI-H522,> 100000 nM (inactive)
same,GI50,UO-31,> 100000 nM (inactive)
same,GI50,CCRF-CEM,> 100000 nM (inactive)
same,GI50,MDA-MB-435,> 100000 nM (inactive)
same,GI50,OVCAR-3,> 100000 nM (inactive)
same,GI50,HL-60,> 100000 nM (inactive)
same,GI50,SR,> 100000 nM (inactive)
same,GI50,SF-539,> 100000 nM (inactive)
same,GI50,LOX IMVI,> 100000 nM (inactive)
same,GI50,SNB-75,> 100000 nM (inactive)
same,GI50,ACHN,> 100000 nM (inactive)
same,GI50,A549,> 100000 nM (inactive)
same,GI50,HCC 2998,> 100000 nM (inactive)
same,GI50,MCF7,> 100000 nM (inactive)
same,GI50,KM12,> 100000 nM (inactive)
same,GI50,UACC-257,> 100000 nM (inactive)
same,GI50,BT-549,> 100000 nM (inactive)
same,GI50,SK-MEL-5,> 100000 nM (inactive)
same,GI50,HOP-92,> 100000 nM (inactive)
same,GI50,SF-295,> 100000 nM (inactive)
same,GI50,HOP-62,> 100000 nM (inactive)
same,GI50,MDA-MB-231,> 100000 nM (inactive)
same,GI50,OVCAR-8,> 100000 nM (inactive)
same,GI50,RPMI-8226,> 100000 nM (inactive)
same,GI50,HCT-116,> 100000 nM (inactive)
same,GI50,NCI-H226,> 100000 nM (inactive)
same,GI50,IGROV-1,> 100000 nM (inactive)
same,GI50,U-251,> 100000 nM (inactive)
same,GI50,SNB-19,> 100000 nM (inactive)
same,GI50,K562,> 100000 nM (inactive)
same,GI50,PC-3,> 100000 nM (inactive)
same,GI50,NCI/ADR-RES,> 100000 nM (inactive)
same,GI50,Hs-578T,> 100000 nM (inactive)
same,GI50,Malme-3M,> 100000 nM (inactive)
same,GI50,SN12C,> 100000 nM (inactive)
same,GI50,HCT-15,> 100000 nM
same,GI50,MOLT-4,> 100000 nM (inactive)
same,GI50,NCI-H23,> 100000 nM (inactive)
same,GI50,RXF 393,> 100000 nM (inactive)
same,GI50,HT-29,> 100000 nM (inactive)
same,GI50,NCI-H460,> 100000 nM (inactive)

# — ChEMBL document CHEMBL1201862, “PubChem BioAssay data set” (2004)
